# Assays:
# [1] = target: T1, CRTH2 (Homo sapiens, UniProt Q9Y5Y4); experiment: DPBS CD11b Antagonist Assay; type: cell-based; settings: polymorphonuclear cells in PBS, eosinophil CD11b expression, challenge with 15R-Methyl-PGD2 (10 nM)
# T1 construct: polymorphonuclear cells (0.5 ml; 10^6/ml cells) in PBS containing 0.9 mM CaCl2 and 0.5 mM MgCl2; endogenous in cells; host or cells: polymorphonuclear cells (eosinophils gated by flow cytometry)
# T1 sequence (Q9Y5Y4 1-395): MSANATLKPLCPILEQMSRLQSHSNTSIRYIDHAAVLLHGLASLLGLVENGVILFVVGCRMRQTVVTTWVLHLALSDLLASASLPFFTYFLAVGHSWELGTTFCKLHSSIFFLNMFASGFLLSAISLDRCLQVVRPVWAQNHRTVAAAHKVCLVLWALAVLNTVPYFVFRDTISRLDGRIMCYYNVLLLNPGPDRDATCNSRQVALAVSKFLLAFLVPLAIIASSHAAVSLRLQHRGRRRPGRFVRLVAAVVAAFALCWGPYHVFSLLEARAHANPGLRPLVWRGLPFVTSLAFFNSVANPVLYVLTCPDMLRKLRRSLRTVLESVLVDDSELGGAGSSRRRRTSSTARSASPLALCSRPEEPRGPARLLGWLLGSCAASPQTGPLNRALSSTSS
# Procedure: DPBS CD11b Antagonist Assay. The potential CRTH2 antagonist activity of certain compounds was tested using a CD11b expression assay using essentially the method described by Monneret et al. (J Pharmacol Exp Ther 304:349-55, 2003). Briefly, polymorphonuclear cells (0.5 ml; 10^6/ml cells) in PBS containing 0.9 mM CaCl2 and 0.5 mM MgCl2) were preincubated with various concentrations of test compounds at room temperature for 10 minutes before they were challenged with the agonist 15R-Methyl-PGD2 (10 nM). The incubations were terminated by the addition of ice-cold FACSFlow (BD Biosciences; Cat# 342003) and centrifugation (400 g for 5 minutes at 4° C.). The cells were then incubated for 30 minutes at 4° C. with a mixture of PE-labeled mouse anti-human VLA-4 (5 μl; BD Biosciences) and FITC-labeled mouse anti-human CD11b (10 μl; Beckman Coulter). The cells were then incubated with Optilyse C (0.25 ml; Beckman Coulter) for 15 minutes, centrifuged, and then fixed in PBS (0.4 ml; calcium and magnesium free) containing 1% formaldehyde. The distribution of fluorescence intensities among 60,000 cells was measured by flow cytometry. Eosinophils were gated out on the basis of their granularity (high side scatter) and labeling with VLA-4 (PE fluorescence). CD11b was then measured in the eosinophil region on the basis of fluorescence due to FITC. All data were corrected for the value obtained for the corresponding isotope control antibody.
# [2] = tested on: DK-PGD2-induced systemic eosinophilia; experiment: DK-PGD2-Induced Systemic Eosinophilia in Rats; type: in vivo; settings: Rattus norvegicus, Eosinophil; female Sprague-Dawley rats, oral dosing 30 min before intracardiac 10 μg DK-PGD2, blood eosinophils at 60 min
# Procedure: DK-PGD2-Induced Systemic Eosinophilia in Rats. Female Sprague-Dawley rats (175-250 g) were dosed orally with test compound (or vehicle). Thirty minutes after dosing, animals were anaesthetized with isoflurane. Following induction of anaesthesia, animals received an intracardiac injection of 10 μg DK-PGD2 in 0.3 ml heparinized (10 U/ml) saline. Control animals received an injection of 0.3 ml heparinized saline. Sixty minutes after the intracardiac injection, animals were again anesthetized with isoflurane and a blood sample was drawn from the abdominal aorta (into heparin) while the rat was anaesthetized but not dead. An aliquot of blood (500 μL) was mixed with an equal volume of 4% dextran (mw 500,000) and the erythrocytes were allowed to settle. A cytospin preparation was made from the resulting leukocyte rich fraction (top) and the cytospin was fixed and stained with Diff-Quick Stain kit (Dade Behring Inc, Newark, Del.). An aliquot of the leukocyte rich fraction was taken for total leukocyte count using flow cytometer (Guava EasyCyte Mini system). Differential leukocyte counts were obtained from the cytospin preparations. Blood eosinophil numbers were determined from the total leukocyte count and the percentage eosinophils.
# [3] = target: T1, CRTH2; experiment: Human Whole Blood CD11b Antagonist Assay; type: cell-based; settings: eosinophil CD11b expression, challenge with 15R-Methyl-PGD2 (10 nM)
# Procedure: Human Whole Blood CD11b Antagonist Assay (modified from Nicholson, et al. Pulmonary Pharmacology and Therapeutics: 20 (2007); 52-59). The potential CRTH2 antagonist activity of certain compounds was tested in human whole blood using an assay that tests the ability of the compounds to block the CD11b expression in eosinophils by 15-R-methyl-PGD2. A CRTH2 antagonist should block CD11b expression by subsequently added 15-Methyl-PGD2. Human whole blood (200 μL) was incubated at 37° C. for 10 minutes in the presence of various concentrations of test compounds before being challenged with the agonist 15R-Methyl-PGD2 (10 nM). Reactions were terminated by the addition of ice-cold PBS+0.5% BSA+2 mMEDTA (1 mL) and centrifugation (300×g for 5 minutes at 4° C.) Cells were then incubated at 4° C. for 10 min in the presence of human IgG. Cells were then incubated for 30-45 min with a mixture of PE-Cy5-labeled mouse anti-human CD16 (10 ul; BD Biosciences) and FITC-labeled mouse anti-human CD11b (10 μL; Beckman Coulter.) After rinsing (1 mL ice-cold PBS+0.5% BSA+2 mMEDTA), red blood cells were lysed by the addition of 1 mL ice-cold H2O to the cell pellet for 30 sec-1 min immediately followed by the addition of 3.5% NaCl (300 μL.) Cells were then rinsed (2x−1 ml ice cold PBS+0.5% BSA+2 mMEDTA) and fixed in PBS containing 1% formaldehyde. The distribution of fluorescence intensities was measured by flow cytometry. Eosinophils were gated out on the basis of their granularity (high side scatter) and absence of CD-16. CD11b was then measured on this eosinophil population on the basis of fluorescence due to FITC.
structure (smiles),measurement,setting,value
"Cc1c(Cc2ccccc2S(=O)(=O)N(C)c2ccccc2)c2c(n1CC(=O)O)CC(C)(C)CC2=O [Example I-49, 2-(2,6,6-trimethyl-3-(2-(N-methyl-N-phenylsulfamoyl)benzyl)-4-oxo-4,5,6,7-tetrahydro-1H-indol-1-yl)acetic acid]",IC50,[1],< 5 nM
same,ED50,[2],1 to 10 mg/kg
"Cc1c(Cc2ccccc2S(=O)(=O)N2CCOCC2)c2c(n1CC(=O)O)CCC(C)(C)C2 [Example I-17, 2-(2,5,5-Trimethyl-3-(2-(morpholinosulfonyl)benzyl)-4,5,6,7-tetrahydro-1H-indol-1-yl)acetic acid]",IC50,[1],< 5 nM
same,IC50,[3],5 to 100 nM
same,ED50,[2],< 1 mg/kg
"CCOC(=O)Cn1c(C)c(Cc2ccccc2S(=O)(=O)N2CCCC2)c2c1CC(C)(C)CC2=O [Example I-51, ethyl 2-(2,6,6-trimethyl-4-oxo-3-(2-(pyrrolidin-1-ylsulfonyl)benzyl)-4,5,6,7-tetrahydro-1H-indol-1-yl)acetate]",IC50,[1],100 to 500 nM
same,ED50,[2],< 1 mg/kg
"Cc1c(Cc2ccc(S(=O)(=O)N3CCCC3)cc2)c2c(n1CC(=O)O)CCCCC2 [Example I-20, 2-(2-Methyl-3-(4-(pyrrolidin-1-ylsulfonyl)benzyl)-5,6,7,8-tetrahydrocyclohepta[b]pyrrol-1(4H)-yl)acetic acid]",IC50,[1],5 to 100 nM
same,IC50,[3],5 to 100 nM
same,ED50,[2],< 1 mg/kg
"Cc1c(Cc2ccc(S(=O)(=O)NC3CCCCC3)cc2)c2c(n1CC(=O)O)CCCC2 [Example I-2, 2-(3-(4-(N-Cyclohexylsulfamoyl)benzyl)-2-methyl-4,5,6,7-tetrahydro-1H-indol-1-yl)acetic acid]",IC50,[1],< 5 nM
same,IC50,[3],100 to 500 nM
same,ED50,[2],1 to 10 mg/kg
"Cc1c(Cc2ccc(S(=O)(=O)N3CCOCC3)cc2)c2c(n1CC(=O)O)CCC(C)(C)C2 [Example I-11, 2-(2,5,5-Trimethyl-3-(4-(morpholinosulfonyl)benzyl)-4,5,6,7-tetrahydro-1H-indol-1-yl)acetic acid]",IC50,[1],< 5 nM
same,IC50,[3],100 to 500 nM
same,ED50,[2],< 1 mg/kg
"Cc1c(Cc2ccc(S(=O)(=O)N3CCCC3)cc2)c2c(n1CC(=O)O)CCC2 [Example I-19, 2-(2-Methyl-3-(4-(pyrrolidin-1-ylsulfonyl)benzyl)-5,6-dihydrocyclopenta[b]pyrrol-1(4H)-yl)acetic acid]",IC50,[1],5 to 100 nM
same,ED50,[2],< 1 mg/kg
"Cc1c(Cc2ccc(S(=O)(=O)N3CCCC3)cc2)c2c(n1CC(=O)O)CCCC2 [Example I-1, 2-(2-Methyl-3-(4-(pyrrolidin-1-ylsulfonyl)benzyl)-4,5,6,7-tetrahydro-1H-indol-1-yl)acetic acid]",IC50,[1],< 5 nM
same,IC50,[3],5 to 100 nM
same,ED50,[2],1 to 10 mg/kg
"Cc1c(Cc2ccccc2S(=O)(=O)N2CCOCC2)c2c(n1CC(=O)O)CC(C)(C)CC2=O [Example I-40, 2-(2,6,6-trimethyl-3-(2-(morpholinosulfonyl)benzyl)-4-oxo-4,5,6,7-tetrahydro-1H-indol-1-yl)acetic acid]",IC50,[1],< 5 nM
same,IC50,[3],5 to 100 nM
same,ED50,[2],< 1 mg/kg
"Cc1c(Cc2ccccc2S(=O)(=O)N2CCCC2)c2c(n1CC(=O)OC(C)C)CC(C)(C)CC2=O [Example I-55, isopropyl 2-(2,6,6-trimethyl-4-oxo-3-(2-(pyrrolidin-1-ylsulfonyl)benzyl)-4,5,6,7-tetrahydro-1H-indol-1-yl)acetate]",IC50,[1],100 to 500 nM
same,ED50,[2],< 1 mg/kg
"Cc1c(Cc2ccccc2S(=O)(=O)N2CCCC2)c2c(n1CC(=O)O)CC(C)(C)CC2=O [Example I-43, 2-(2,6,6-trimethyl-4-oxo-3-(2-(pyrrolidin-1-ylsulfonyl)benzyl)-4,5,6,7-tetrahydro-1H-indol-1-yl)acetic acid]",IC50,[1],< 5 nM
same,IC50,[3],5 to 100 nM
same,ED50,[2],< 1 mg/kg
"Cc1c(Cc2ccccc2S(=O)(=O)N2CCCC2)c2c(n1CC(=O)O)CCCCC2 [Example I-22, 2-(2-Methyl-3-(2-(pyrrolidin-1-ylsulfonyl)benzyl)-5,6,7,8-tetrahydrocyclohepta[b]pyrrol-1(4H)-yl)acetic acid]",IC50,[1],5 to 100 nM
same,ED50,[2],< 1 mg/kg
"Cc1c(Cc2ccccc2S(=O)(=O)N2CCOCC2)c2c(n1CC(=O)O)CCCCC2 [Example I-21, 2-(2-Methyl-3-(2-(morpholinosulfonyl)benzyl)-5,6,7,8-tetrahydrocyclohepta[b]pyrrol-1(4H)-yl)acetic acid]",IC50,[1],5 to 100 nM
same,IC50,[3],100 to 500 nM
same,ED50,[2],< 1 mg/kg
"Cc1c(Cc2ccc(S(=O)(=O)N3CCCC3)cc2)c2c(n1CC(=O)O)CCC(C)(C)C2 [Example I-4, 2-(2,5,5-Trimethyl-3-(4-(pyrrolidin-1-ylsulfonyl)benzyl)-4,5,6,7-tetrahydro-1H-indol-1-yl)acetic acid]",IC50,[1],< 5 nM
same,IC50,[3],5 to 100 nM
same,ED50,[2],< 1 mg/kg
"Cc1c(Cc2ccccc2S(=O)(=O)c2ccccc2)c2c(n1CC(=O)O)CCC(C)(C)C2 [Example I-9, 2-(2,5,5-Trimethyl-3-(2-(phenylsulfonyl)benzyl)-4,5,6,7-tetrahydro-1H-indol-1-yl)acetic acid]",ED50,[2],< 1 mg/kg

# Reference: patent US20110312945A1, “CRTH2 MODULATORS” (priority 2008, published 2011)
